Toxic doses and inconclusive results are not listed. Rule as the data show it: active = T/C of 150% or more; inactive = T/C below 125%.
Tested on: L1210 leukemia ip in BDF1 mice, survival T/C
Assay: NCI In Vivo Anticancer Drug Screen. Data for tumor model L1210 Leukemia (intraperitoneal) in B6D2F1 (BDF1) mice
Conditions: endpoint: mean survival time, higher = longer survival
Summary of the method: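 Tumor cells were implanted, animals were treated, and survival was followed. The result divides the treated measurement by the vehicle-control measurement.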

[1] = dose: 100.0 mg/kg/injection, schedule: Q01DX001 (ip), vehicle: saline
[2] = dose: 200.0 mg/kg/injection, schedule: Q01DX001 (ip), vehicle: saline
[3] = dose: 400.0 mg/kg/injection, schedule: Q01DX001 (ip), vehicle: saline
[4] = dose: 100.0 mg/kg/injection, schedule: Q04DX003 (ip), vehicle: saline with Tween-80
[5] = dose: 200.0 mg/kg/injection, schedule: Q04DX003 (ip), vehicle: saline with Tween-80
[6] = dose: 400.0 mg/kg/injection, schedule: Q04DX003 (ip), vehicle: saline with Tween-80
[7] = dose: 100.0 mg/kg/injection, schedule: Q04DX003 (ip), vehicle: saline

Measured: T/C

C1CCN[N-]C1.C1CCN[N-]C1.[Cl][Pt+2]([Cl])([Cl])[Cl]
inactive: dose: 25.0 mg/kg/injection, schedule: Q04DX003 (ip), vehicle: water 111 % of control | dose: 50.0 mg/kg/injection, schedule: Q04DX003 (ip), vehicle: water 102 % of control | dose: 100.0 mg/kg/injection, schedule: Q04DX003 (ip), vehicle: water 102 % of control

CC1=COC2(CC1)OC1CC3C4CCC5CC(O)CCC5(C)C4CCC3(C)C1C2C (stereo unspecified)
inactive: dose: 100.0 mg/kg/injection, schedule: Q01DX001 (ip), vehicle: saline with Tween-80 96 % of control | dose: 200.0 mg/kg/injection, schedule: Q01DX001 (ip), vehicle: saline with Tween-80 102 % of control | dose: 400.0 mg/kg/injection, schedule: Q01DX001 (ip), vehicle: saline with Tween-80 95 % of control

O=C1O/C(=C(\C(=O)O)c2ccccc2)C(O)=C1c1ccccc1
inactive: dose: 100.0 mg/kg/injection, schedule: Q01DX009 (ip), vehicle: Klucel (hydroxypropylcellulose) (HPC) 113 % of control | dose: 100.0 mg/kg/injection, schedule: Q04DX003 (ip), vehicle: Klucel (hydroxypropylcellulose) (HPC) 103 % of control | dose: 200.0 mg/kg/injection, schedule: Q01DX009 (ip), vehicle: Klucel (hydroxypropylcellulose) (HPC) 101 % of control | dose: 200.0 mg/kg/injection, schedule: Q04DX003 (ip), vehicle: Klucel (hydroxypropylcellulose) (HPC) 97 % of control | dose: 400.0 mg/kg/injection, schedule: Q01DX009 (ip), vehicle: Klucel (hydroxypropylcellulose) (HPC) 102 % of control | dose: 400.0 mg/kg/injection, schedule: Q04DX003 (ip), vehicle: Klucel (hydroxypropylcellulose) (HPC) 108 % of control

O=c1[nH]cccc1CC(O)(c1ccccc1)c1ccccc1
inactive: [1] 101 % of control | [2] 103 % of control | [3] 100 % of control

Cc1ccc(S(=O)(=O)OCC(C)([N+](=O)[O-])[N+](=O)[O-])cc1
inactive: dose: 100.0 mg/kg/injection, schedule: Q04DX002 (ip), vehicle: saline with Tween-80 94 % of control | dose: 200.0 mg/kg/injection, schedule: Q04DX002 (ip), vehicle: saline with Tween-80 97 % of control | dose: 400.0 mg/kg/injection, schedule: Q04DX002 (ip), vehicle: saline with Tween-80 101 % of control

Cc1cc(C)c(S(=O)(=O)N=[N+]=[N-])c(C)c1
inactive: [1] 101 % of control | [2] 103 % of control | [3] 97 % of control

O=C(Nc1ccc(C2=NCCN2)cc1)c1ccc2cc(C(=O)Nc3ccc(C4=NCCN4)cc3)ccc2c1
inactive: dose: 15.0 mg/kg/injection, schedule: Q01DX Z (ip), vehicle: carboxymethylcellulose (CMC) 123 % of control | dose: 120.0 mg/kg/injection, schedule: Q01DX Z (ip), vehicle: carboxymethylcellulose (CMC) 120 % of control

Nc1nc(=O)n(C2OC(CO)C(O)C2O)cc1Cl (stereo unspecified)
active: dose: 200.0 mg/kg/injection, schedule: Q01DX005 (ip), vehicle: saline 150 % of control | dose: 200.0 mg/kg/injection, schedule: Q01DX009 (ip), vehicle: saline 160 % of control | dose: 400.0 mg/kg/injection, schedule: Q01DX009 (ip), vehicle: saline 176 % of control

CN(CCO)c1c(Cl)c(=O)oc2ccc(Cl)cc12
inactive: [4] 90 % of control | [5] 92 % of control | [6] 89 % of control

O=C1CCCN1.O=C1CCCN1.[Br][Co][Br]
inactive: dose: 37.5 mg/kg/injection, schedule: Q01DX009 (ip), vehicle: saline 113 % of control | dose: 50.0 mg/kg/injection, schedule: Q04DX003 (ip), vehicle: saline 107 % of control | dose: 75.0 mg/kg/injection, schedule: Q01DX001 (ip), vehicle: saline 103 % of control | dose: 75.0 mg/kg/injection, schedule: Q01DX009 (ip), vehicle: saline 116 % of control | [7] 109 % of control | dose: 150.0 mg/kg/injection, schedule: Q01DX001 (ip), vehicle: saline 102 % of control | dose: 300.0 mg/kg/injection, schedule: Q01DX001 (ip), vehicle: saline 97 % of control

Cc1ccc(O)c(C(=O)c2ccccc2)c1
inactive: dose: 50.0 mg/kg/injection, schedule: Q01DX001 (ip), vehicle: carboxymethylcellulose (CMC) 96 % of control | dose: 100.0 mg/kg/injection, schedule: Q01DX001 (ip), vehicle: carboxymethylcellulose (CMC) 99 % of control | dose: 200.0 mg/kg/injection, schedule: Q01DX001 (ip), vehicle: carboxymethylcellulose (CMC) 89 % of control | dose: 400.0 mg/kg/injection, schedule: Q01DX001 (ip), vehicle: carboxymethylcellulose (CMC) 94 % of control

CCCCP(=O)(CCC)CCCC
inactive: [4] 99 % of control | [5] 94 % of control | [6] 87 % of control

NC(=O)C(O)c1ccccc1 (stereo unspecified)
inactive: [7] 96 % of control | dose: 200.0 mg/kg/injection, schedule: Q04DX003 (ip), vehicle: saline 94 % of control | dose: 400.0 mg/kg/injection, schedule: Q04DX003 (ip), vehicle: saline 100 % of control

— PubChem BioAssay AID248 (DTP/NCI, 2004)
